In BindingDB's records for doi:10.1016/s0960-894x(99)00237-1 (Warner-Lambert, 1999):

Key:
[1] = target: T1, Human immunodeficiency virus type 1 protease (Human immunodeficiency virus 1, UniProt Q72874); assay: In vitro binding affinity against HIV protease at pH 6.2.
[2] = target: T1, Human immunodeficiency virus type 1 protease; assay: ChEBML_157707; conditions: pH 6.2
Description: In vitro binding affinity against HIV protease at pH 6.2 was determined

[3] = target: T1, Human immunodeficiency virus type 1 protease; assay: Binding affinity towards HIV protease was determined

Structure (SMILES) | IC50 [1] [nM] | Ki [2] [nM] | Ki [3] [nM]
Cc1cc(SC2C(=O)CC(CCc3ccc(O)cc3)(C(C)C)OC2=O)c(C(C)(C)C)cc1NC(=O)c1ccccc1 (configuration not stated) [N-(5-tert-Butyl-4-{4-hydroxy-6-[2-(4-hydroxy-phenyl)-ethyl]-6-isopropyl-2-oxo-5,6-dihydro-2H-pyran-3-ylsulfanyl}-2-methyl-phenyl)-benzamide] | 13 | – | –
Cc1cc(SC2C(=O)C[C@@](CCc3ccc(O)cc3)(C(C)C)OC2=O)c(C(C)(C)C)cc1N (stereo partly drawn) [(6S)-3-[(4-amino-2-tert-butyl-5-methylphenyl)sulfanyl]-4-hydroxy-6-[2-(4-hydroxyphenyl)ethyl]-6-(propan-2-yl)-5,6-dihydro-2H-pyran-2-one] | – | 0.07 | 0.07

Second part, the compound after the results:

IC50 [1] [nM] | Ki [2] [nM] | Ki [3] [nM] | Structure (SMILES)
11 | – | – | Cc1cc(SC2C(=O)CC(CCc3ccc(O)cc3)(C(C)C)OC2=O)c(C(C)(C)C)cc1N(C)C (configuration not stated) [3-(2-tert-Butyl-4-dimethylamino-5-methyl-phenylsulfanyl)-4-hydroxy-6-[2-(4-hydroxy-phenyl)-ethyl]-6-isopropyl-5,6-dihydro-pyran-2-one]
5.1 | – | – | Cc1cc(SC2C(=O)CC(CCc3ccc(O)cc3)(C(C)C)OC2=O)c(C(C)(C)C)cc1NC(=O)c1ccncc1 (configuration not stated) [N-(5-tert-Butyl-4-{4-hydroxy-6-[2-(4-hydroxy-phenyl)-ethyl]-6-isopropyl-2-oxo-5,6-dihydro-2H-pyran-3-ylsulfanyl}-2-methyl-phenyl)-isonicotinamide]
5.1 | – | – | Cc1cc(SC2C(=O)CC(CCc3ccc(O)cc3)(C(C)C)OC2=O)c(C(C)(C)C)cc1NC(=O)c1cccnc1 (configuration not stated) [N-(5-tert-Butyl-4-{4-hydroxy-6-[2-(4-hydroxy-phenyl)-ethyl]-6-isopropyl-2-oxo-5,6-dihydro-2H-pyran-3-ylsulfanyl}-2-methyl-phenyl)-nicotinamide]
11 | – | – | Cc1cc(SC2C(=O)CC(CCc3ccccc3)(c3ccccc3)OC2=O)c(C(C)(C)C)cc1N (configuration not stated) [3-(4-Amino-2-tert-butyl-5-methyl-phenylsulfanyl)-4-hydroxy-6-phenethyl-6-phenyl-5,6-dihydro-pyran-2-one]
